Source: US4190661A, “Pyrazolo-quinolines, compositions and pharmaceutical preparations” (Laboratoires Chauvin-Blache, priority 1977, dated 1980)
In brackets after ≈: the same amount, converted by molar mass. Read-outs that look alike come from different tables or passages of the source.

What was measured:
Streptococcus foecalis = experiment: antibacterial activity in vitro, dilution in liquid medium method (MIC/MBC); format: cell-based; conditions: read-out: minimum inhibiting concentration (MIC)
Experimental: (§1) The nalidixic acid solution and the solutions containing compounds of the formula (I) were prepared in distilled water with addition of sodium hydroxide.
(§2) The strains used are all obtained from the hospital where they were recently isolated from urinary infections (except Salmonella para B and Listeria which are obtained from a collection):
(§3) Different dilutions of 24 hour cultures in physiological saline were used, depending on the respective growth rate of each germ:
(§4) The test is conducted in phenol red glucose broth inoculated with 0.1 ml of the dilution of the germ studied per 3 ml of broth.
(§5) The bactericidal activity was investigated according to the dilution in liquid medium method.
(§6) After 18 hours in an oven at 37° C., the minimum inhibiting concentration (MIC) corresponding to the last tube whose pH remains unmodified was noted.
(§7) The minimum bactericidal concentration (MBC) was investigated by spreading on a dish of agar medium a dosage of material taken from the tubes which have remained clear. The MBC/24 hrs is the lowest concentration for which the survival rate is zero after a contact time of 24 hours.

Salmonella para B = experiment: as above; format: cell-based; conditions: for MIC: read-out: minimum inhibiting concentration (MIC)
Experimental: as §1, §2, §3, §4, §5, §6, §7

Pseudomonas aeruginosa = experiment: as above; format: cell-based; conditions: read-out: minimum inhibiting concentration (MIC)
Experimental: as §1, §2, §3, §4, §5, §6, §7

Proteus mirabilis = experiment: as above; format: cell-based; conditions: read-out: minimum inhibiting concentration (MIC)
Experimental: as §1, §2, §3, §4, §5, §6, §7

Escherichia coli = experiment: as above; format: cell-based; conditions: for MIC: read-out: minimum inhibiting concentration (MIC); for MBC: read-out: minimum bactericidal concentration (MBC)
Experimental: as §1, §2, §3, §4, §5, §6, §7

Staphylococcus aureus = experiment: as above; format: cell-based; conditions: read-out: minimum inhibiting concentration (MIC)
Experimental: as §1, §2, §3, §4, §5, §6, §7

Klebsiella pneumoniae = experiment: as above; format: cell-based; conditions: read-out: minimum inhibiting concentration (MIC)
Experimental: as §1, §2, §3, §4, §5, §6, §7

Citrobacter = experiment: as above; format: cell-based; conditions: read-out: minimum inhibiting concentration (MIC)
Experimental: as §1, §2, §3, §4, §5, §6, §7

[1] = acute toxicity, graphical method according to Miller and Tainter; conditions: mouse, in vivo, mice
Excerpt: Indeed, their LD50 values in mice, as determined by the graphical method according to Miller and Tainter are as follows: […]

Enterobacter cloacae = experiment: antibacterial activity in vitro, dilution in liquid medium method (MIC/MBC); format: cell-based; conditions: for MIC: read-out: minimum inhibiting concentration (MIC)
Experimental: as §1, §2, §3, §4, §5, §6, §7

Listeria monocytogenes = experiment: as above; format: cell-based; conditions: for MIC: read-out: minimum inhibiting concentration (MIC); for MBC: read-out: minimum bactericidal concentration (MBC)
Experimental: as §1, §2, §3, §4, §5, §6, §7

[2] = tested on: Enterobacter liquefaciens; experiment: as above; format: cell-based; conditions: for MIC: read-out: minimum inhibiting concentration (MIC)
Experimental: as §1, §2
Enterobacter liquefaciens
as §3, §4, §5, §6, §7

[3] = Streptococcus foecalis, 18 hours, 37° C.
[4] = Salmonella para B, 18 hours, 37° C.

For `CCn1cc(C(=O)O)c(=O)n2nc3ccccc3c12` [I a, 3-oxo-4-carboxy-6-ethyl-pyrimido[3,2-b]indazole], the MIC (Streptococcus foecalis; [3]) was > 100 µg/mL, the MIC (Salmonella para B; [4]) was > 100 µg/mL and the MIC (Pseudomonas aeruginosa; 18 hours, 37° C.) was > 100 µg/mL. The MIC (Proteus mirabilis; 18 hours, 37° C.) was > 100 µg/mL, the MIC (Escherichia coli; 18 hours, 37° C.) was > 100 µg/mL and the MIC (Staphylococcus aureus; 18 hours, 37° C.) was > 100 µg/mL. For the same compound, the MIC (Klebsiella pneumoniae; 18 hours, 37° C.) was > 100 µg/mL.
In the case of `CCn1cc(C(=O)O)c(=O)c2ccc3[nH]ncc3c21` [I b, 1-ethyl-3-carboxy-4-oxo-pyrazolo[5,4-h]quinoline], the MIC (Streptococcus foecalis; [3]) is reported as > 100 µg/mL, the MIC (Salmonella para B; [4]) is reported as > 100 µg/mL and the MIC (Pseudomonas aeruginosa; 18 hours, 37° C.) is reported as > 100 µg/mL. For the same compound, the MIC (Proteus mirabilis; 18 hours, 37° C.) was > 100 µg/mL, the MIC (Escherichia coli; 18 hours, 37° C.) was > 100 µg/mL and the MIC (Staphylococcus aureus; 18 hours, 37° C.) was > 100 µg/mL. The MIC (Klebsiella pneumoniae; 18 hours, 37° C.) was > 100 µg/mL.
For `CCn1cc(C(=O)O)c(=O)c2c3cn[nH]c3ccc21` [I c, 1-Ethyl-3-carboxy-4-oxo-pyrazolo[4,5-f]quinoline], the MIC (Streptococcus foecalis; [3]) was > 10 µg/mL, the MIC (Pseudomonas aeruginosa; 18 hours, 37° C.) was > 10 µg/mL and the MIC (Proteus mirabilis; 18 hours, 37° C.) was > 10 µg/mL. For the same compound, the MIC (Escherichia coli; 18 hours, 37° C.) was > 10 µg/mL, the MIC (Staphylococcus aureus; 18 hours, 37° C.) was > 10 µg/mL and the MIC (Klebsiella pneumoniae; 18 hours, 37° C.) was > 10 µg/mL.
In the case of `CCn1cc(C(=O)O)c(=O)c2c3cnn(Cc4ccccc4)c3ccc21` [I d, 1-ethyl-3-carboxy-4-oxo-7-benzyl-pyrazolo[4,5-f]quinoline], the MIC (Streptococcus foecalis; [3]) is reported as > 10 µg/mL, the MIC (Pseudomonas aeruginosa; 18 hours, 37° C.) is reported as > 10 µg/mL and the MIC (Proteus mirabilis; 18 hours, 37° C.) is reported as > 10 µg/mL. For the same compound, the MIC (Staphylococcus aureus; 18 hours, 37° C.) was > 10 µg/mL.
With `C=Cn1cc(C(=O)O)c(=O)c2c3[nH]ncc3ccc21` [I e', 1-Vinyl-3-carboxy-4-oxo-pyrazolo[5,4-f]quinoline] the MIC (Streptococcus foecalis; [3]) was > 10 µg/mL, the MIC (Pseudomonas aeruginosa; 18 hours, 37° C.) was > 10 µg/mL and the MIC (Citrobacter; 18 hours, 37° C.) was > 10 µg/mL. For the same compound, the MIC (Proteus mirabilis; 18 hours, 37° C.) was > 10 µg/mL, the MIC (Escherichia coli; 18 hours, 37° C.) was 5 µg/mL (≈ 19.6 µM) and the MIC (Staphylococcus aureus; 18 hours, 37° C.) was > 10 µg/mL. For the same compound, the MIC (Klebsiella pneumoniae; 18 hours, 37° C.) was > 10 µg/mL, the LD50 ([1]; ip, intraperitoneal route) was 2800 mg/kg and the LD50 ([1]; oral route) was > 5000 mg/kg.
With `CCn1cc(C(=O)O)c(=O)c2c3[nH]ncc3ccc21` [I e] the MIC (Streptococcus foecalis; [3]) was > 10 µg/mL, the MIC (Enterobacter cloacae; 18 hours, 37° C.) was > 10 µg/mL and the MIC (Salmonella para B; [4]) was > 10 µg/mL. For the same compound, the MIC (Pseudomonas aeruginosa; 18 hours, 37° C.) was > 10 µg/mL, the MIC (Citrobacter; 18 hours, 37° C.) was > 10 µg/mL and the MIC (Proteus mirabilis; 18 hours, 37° C.) was > 10 µg/mL. The MIC (Escherichia coli; 18 hours, 37° C.) was 5 µg/mL (≈ 19.4 µM), the MBC (Escherichia coli; contact time 24 hours) was 100 µg/mL (≈ 389 µM) and the MIC (Staphylococcus aureus; 18 hours, 37° C.) was > 10 µg/mL. For the same compound, the MIC (Klebsiella pneumoniae; 18 hours, 37° C.) was > 10 µg/mL, the MIC (Listeria monocytogenes; 18 hours, 37° C.) was 10 µg/mL (≈ 38.9 µM) and the MBC (Listeria monocytogenes; contact time 24 hours) was 100 µg/mL (≈ 389 µM). For the same compound, the MIC ([2]; Enterobacter liquefaciens, 18 hours, 37° C.) was > 10 µg/mL.
In the case of `CCn1cc(C(=O)O)c(=O)c2c1ccc1cnn(C)c12` [I f, 1-ethyl-3-carboxy-4-oxo-5-methyl-pyrazolo[5,4-f]uinoline], the MIC (Streptococcus foecalis; [3]) is reported as > 10 µg/mL, the MIC (Pseudomonas aeruginosa; 18 hours, 37° C.) is reported as > 10 µg/mL and the MIC (Proteus mirabilis; 18 hours, 37° C.) is reported as > 10 µg/mL. The MIC (Staphylococcus aureus; 18 hours, 37° C.) was > 10 µg/mL.
With `CCn1cc(C(=O)O)c(=O)c2c3nn(C)cc3ccc21` [I g, 1-ethyl-3-carboxy-4-oxo-6-methyl-pyrazolo[3,4-f]uinoline] the MIC (Streptococcus foecalis; [3]) was > 100 µg/mL, the MIC (Pseudomonas aeruginosa; 18 hours, 37° C.) was > 100 µg/mL and the MIC (Proteus mirabilis; 18 hours, 37° C.) was > 100 µg/mL. The MIC (Staphylococcus aureus; 18 hours, 37° C.) was > 100 µg/mL and the MIC (Klebsiella pneumoniae; 18 hours, 37° C.) was > 100 µg/mL.
For `CCn1cc(C(=O)O)c(=O)c2ccc3cnn(CC)c3c21` [I h, 1,9-diethyl-3-carboxy-4-oxo-pyrazolo[4,5-h]quinoline], the MIC (Streptococcus foecalis; [3]) was > 10 µg/mL, the MIC (Pseudomonas aeruginosa; 18 hours, 37° C.) was > 10 µg/mL and the MIC (Proteus mirabilis; 18 hours, 37° C.) was > 10 µg/mL. The MIC (Staphylococcus aureus; 18 hours, 37° C.) was > 10 µg/mL and the MIC (Klebsiella pneumoniae; 18 hours, 37° C.) was > 10 µg/mL.
Compound `CCn1cc(C(=O)O)c(=O)c2c3[nH]ncc3ccc21` [Ie] has an LD50 ([1]; ip, intraperitoneal route) of 2500 mg/kg and an LD50 ([1]; oral route) of 4700 mg/kg.
For `CCn1cc(C(=O)O)c(=O)c2ccc(C)nc21` [Nalidixic acid, nalidixic acid, reference compound], the MIC (Streptococcus foecalis; Streptococcus, 18 h) was > 200 µg/mL, the MIC (Enterobacter cloacae; 18 h) was 50 µg/mL (≈ 215 µM) and the MBC (Enterobacter cloacae; 24 h, read-out: minimum bactericidal concentration (MBC)) was 100 µg/mL (≈ 431 µM). The MIC (Salmonella para B; Salmonella, 18 h) was 5 µg/mL (≈ 21.5 µM), the MBC (Salmonella para B; Salmonella, 24 h, read-out: minimum bactericidal concentration (MBC)) was 100 µg/mL (≈ 431 µM) and the MIC (Pseudomonas aeruginosa; 18 h) was > 200 µg/mL. For the same compound, the MIC (Citrobacter; 18 h) was > 200 µg/mL, the MIC (Proteus mirabilis; 18 h) was > 200 µg/mL and the MIC (Escherichia coli; 18 h) was 5 µg/mL (≈ 21.5 µM). The MBC (Escherichia coli; 24 h) was 100 µg/mL (≈ 431 µM), the MIC (Staphylococcus aureus; 18 h) was > 200 µg/mL and the MIC (Klebsiella pneumoniae; 18 h) was > 200 µg/mL. The MIC (Listeria monocytogenes; 18 h) was 5 µg/mL (≈ 21.5 µM), the MBC (Listeria monocytogenes; 24 h) was 100 µg/mL (≈ 431 µM) and the MIC ([2]; Enterobacter, 18 h) was 25 µg/mL (≈ 108 µM). It also gave an MBC ([2]; Enterobacter, 24 h, read-out: minimum bactericidal concentration (MBC)) of 100 µg/mL (≈ 431 µM).
